# Measured values taken from US9060541B2, “Sterilizer for foods” (Kawakami Co., Ltd., priority 2009, dated 2015).
# Like-named read-outs stand apart in the source and are kept apart here.
# What was measured:
# Format in all cases: cell-based
# Design in all cases: key: D: There is no sterilization effect.; C: There is a sterilization effect in step (1) but no sterilization effect in step (2).; B: There is a sterilization effect up to step (2) but no sterilization effect in step (3).; A: There is a sterilization effect up to step (3)
# [1] = system: Pseudomonas anguilliseptica NCMB1950; assay: Comparison test of sterilization effects against various food poisoning microbes
# [2] = system: Plesiomonas shigelloides KX-P1945; assay: as above
# [3] = system: Vibrio mimicus KX-M5; assay: as above
# [4] = system: Salmonella serotype Stanley KX-S141; assay: as above
# [5] = system: Vibrio cholerae non-O1 non-O139 KX-N105
# [6] = system: Shigella boydii serotype 4 KX-H288; assay: Comparison test of sterilization effects against various food poisoning microbes
# [7] = system: Aeromonas sobria KX-A435; assay: as above
# [8] = system: Shigella dysenteriae serotype 2 KX-H214
# [9] = system: Enterohemorrhagic Escherichia coli O157:H7 EDL 933
# [10] = system: Bacillus cereus Kyoto 1; assay: Comparison test of sterilization effects against various food poisoning microbes
# [11] = system: Enteroinvasive Escherichia coli O28ac KX-E63; assay: as above
# [12] = system: Salmonella serotype Rissen KX-S151; assay: as above
# [13] = system: Enteropathogenic Escherichia coli O55 KX-E59; assay: as above
# [14] = system: Staphylococcus aureus 080392-1 Toxin type A; assay: as above
# [15] = system: Shigella flexneri subtype 1b KX-H273; assay: as above
# [16] = Table 7, test microbe solution without yeast extract
# [17] = Table 8, yeast extract 4 weight % blended in test microbe solution
SMILES,"Sterilization effect [1, 16]","Sterilization effect [1, 17]","Sterilization effect [2, 16]","Sterilization effect [2, 17]","Sterilization effect [3, 16]","Sterilization effect [3, 17]","Sterilization effect [4, 16]","Sterilization effect [4, 17]","Sterilization effect [5, 16]","Sterilization effect [5, 17]","Sterilization effect [6, 16]","Sterilization effect [6, 17]","Sterilization effect [7, 16]","Sterilization effect [7, 17]","Sterilization effect [8, 16]","Sterilization effect [8, 17]","Sterilization effect [10, 16]","Sterilization effect [10, 17]","Sterilization effect [11, 16]","Sterilization effect [11, 17]",other results
"CCO [EtOH 30%, ethanol]",B,B,B,B,C,C,C,C,C,C,D,D,B,C,C,C,C,D,C,C,"Sterilization effect [9]: D; Sterilization effect [12, 16]: C; Sterilization effect [12, 17]: C; Sterilization effect [13, 16]: D; Sterilization effect [13, 17]: D; Sterilization effect [14, 16]: B; Sterilization effect [14, 17]: D; Sterilization effect [15, 16]: C; Sterilization effect [15, 17]: D"
"[Na+].[O-]Cl [S.H 150 ppm, sodium hypochlorite]",A,D,A,C,A,D,A,D,A,D,A,D,A,D,A,C,A,D,A,D,"Sterilization effect [9, 16]: A; Sterilization effect [9, 17]: D; Sterilization effect [12, 16]: A; Sterilization effect [12, 17]: D; Sterilization effect [13, 16]: A; Sterilization effect [13, 17]: D; Sterilization effect [14, 16]: A; Sterilization effect [14, 17]: D; Sterilization effect [15, 16]: A; Sterilization effect [15, 17]: D"
